We go through 8 molecules from publication PMC9797896 (Medicinal Chemistry Research, 2022).

Where only a bound is given, the exact number is not on record here.

The first data set relates to Vero E6 cells.
Test: not given
The following applies: African green monkey.
Take `CC(C)Nc1nc2cc(Cl)c(Cl)cc2n1[C@H]1O[C@@H](CO)[C@H](O)[C@@H]1O` [Maribavir, maribavir]: the CC50 was more than 100 µM.

With `CC(C)C(=O)OC[C@H]1O[C@@H](n2ccc(NO)nc2=O)[C@H](O)[C@@H]1O` [Molnupiravir, molnupiravir], the CC50 was more than 100 µM. On to `COc1nc(N)nc2c1ncn2[C@@H]1O[C@H](CO)[C@@H](O)[C@@H]1O` [Nelarabine, nelarabine], for which the CC50 is more than 100 µM. In turn, `O=c1[nH]cnc2c([C@@H]3N[C@H](CO)[C@@H](O)[C@H]3O)c[nH]c12` [Forodesine, forodesine] had a CC50 of more than 100 µM.

On to `Nc1ncnc2c1ncn2[C@@H]1O[C@H](CO)[C@@H](O)[C@@H]1O` [Vidarabine, Arabinosyladenine], for which the CC50 is more than 100 µM. On the same count and under the same terms, then `CC(C)=CCNc1ncnc2c1ncn2[C@@H]1O[C@H](CO)[C@@H](O)[C@H]1O` [Riboprine, N^6-(2-Isopentenyl)adenosine], with more than 100 µM. In turn, `OC[C@H]1O[C@@H](n2cnc3c(N[C@@H]4CCOC4)ncnc32)[C@H](O)[C@@H]1O` [Tecadenoson, tecadenoson] showed a CC50 of more than 100 µM.

Tested on in another data set: not listed separately
The data set is described as follows: in vitro. As to conditions: African green monkey.
In turn, `CCC(CC)COC(=O)[C@H](C)N[P@](=O)(OC[C@H]1O[C@@](C#N)(c2ccc3c(N)ncnn23)[C@H](O)[C@@H]1O)Oc1ccccc1` [Remdesivir, remdesivir] returned a CC50 of more than 100 µM.
